Our source for the TGI values is PubChem BioAssay (NCI).

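Compound exposure: 48 hours, 5 concentrations, 96-well plates. TGI marks complete inhibition of growth.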

Holding throughout (test): NCI anticancer screen, dose series, 48 h
In assay [1] the test system is 786-0 renal.
Assay [2] deals with BT-549 breast.
Assay [3] relates to CAKI-1 renal.
The test system of assay [4] is COLO 205 colon.
The test system of assay [5] is HCC-2998 colon.
The test system of assay [6] is HCT-116 colon.
Assay [7] relates to HOP-92 NSCLC.
Assay [8] relates to HS 578T breast.
In assay [9] the test system is IGROV1 ovarian.
For assay [10], the system named is MDA-N.
In assay [11] the test system is NCI-H226 lung.
Assay [12] concerns NCI-H522 lung.
The subject of assay [13] is OVCAR-8 ovarian.
Assay [14] deals with RXF 393 renal.
Assay [15] deals with SF-295 CNS.
In assay [16] the test system is SF-539 CNS.
The test system of assay [17] is SK-OV-3 ovarian.
Assay [18] deals with SR leukemia.
Assay [19] has as its system T-47D breast.

For the compound `CC(=O)Oc1ccc2c(c1)[nH]c1c3ccc(OC(C)=O)cc3oc(=O)c21`, the TGI in assay [1] was greater than 100 µM; in assay [2] it was 68.2 µM; in assay [3], greater than 100 µM; in [4], greater than 100 µM; in assay [5], 67.7 µM; in [6], 78.1 µM. Further, the TGI in [7] is greater than 100 µM; in assay [8] it was greater than 100 µM; in [9], greater than 100 µM; in assay [10], greater than 100 µM; in assay [11], 76.5 µM; in [12], greater than 100 µM. Further, the TGI in assay [13] was greater than 100 µM; in assay [14] it was 68.2 µM; in [15], greater than 100 µM; in assay [16], greater than 100 µM; in assay [17], greater than 100 µM; in assay [18], 71.7 µM. This compound gave a TGI in [19] of 48.9 µM.

Turning to `O=C(Nn1c(-c2ccccc2)nc2ccccc2c1=O)c1cccc([N+](=O)[O-])c1`, the TGI in [1], in [2], in [4], in assay [5], in assay [6] and in [7] was greater than 100 µM in each case. Also, the TGI in assay [8], in assay [9], in [10], in assay [11], in assay [12] and in assay [13] was greater than 100 µM throughout. The TGI in assay [14], in [16], in assay [17], in assay [18] and in [19] was greater than 100 µM throughout.

In the case of `COc1ccc2nc3cccc([N+](=O)[O-])c3c(NCCC(=O)O)c2c1`, the TGI in [1], in [2], in assay [3], in assay [4], in assay [5] and in assay [6] was greater than 10 µM throughout. Also, the TGI in [7], in [8], in [9], in assay [10], in assay [11] and in assay [12] was greater than 10 µM each time. The TGI in [13], in [14], in assay [15], in [16], in assay [17] and in assay [18] was greater than 10 µM in each case. In [19], this compound showed a TGI greater than 10 µM.

Turning to `CC1(C)CC(=O)c2c(-c3ccc(Cl)cc3)c(C#N)c(=S)n(C3OC(CO)C(O)C(O)C3O)c2C1` (centres undefined), the TGI was greater than 100 µM in assay [1]; greater than 100 µM in assay [2]; greater than 100 µM in assay [3]; 92.8 µM in assay [4]; greater than 100 µM in [5]; greater than 100 µM in assay [6]. Also, the TGI in assay [7] was 96.7 µM; in assay [8], greater than 100 µM; in [9], greater than 100 µM; in assay [10] it was 58.3 µM; in assay [11] it was 73 µM; in [12], greater than 100 µM. Besides, the TGI in assay [13] was greater than 100 µM; in assay [14] it was greater than 100 µM; in assay [15], greater than 100 µM; in [16] it was greater than 100 µM; in assay [18], greater than 100 µM; in [19], 89.6 µM.

For the compound `O=C1CSC(c2ccccc2)N1c1ccc(-c2ccc(-n3c(-c4ccccc4)nc4ccccc4c3=O)cc2)cc1` (centres undefined), the TGI in assay [1], in assay [2], in [3], in assay [4], in assay [5] and in [7] was greater than 100 µM each time. Further, the TGI in assay [8], in assay [9], in assay [10], in assay [12], in [13] and in assay [15] was greater than 100 µM each time. The TGI in assay [17], in [18] and in [19] was greater than 100 µM throughout.

For the compound `CN(C)c1n2c3ccc([N+](=O)[O-])cc3n3c(N(C)C)[n+]4ccccc4c3c2c2cccc[n+]12`, the TGI in assay [1], in assay [2], in [3], in assay [4], in assay [5] and in assay [6] was greater than 100 µM each time. The TGI in [7], in [8], in [9], in assay [10], in [11] and in assay [12] was greater than 100 µM throughout. For the same compound, the TGI in [13], in assay [14], in assay [15], in assay [17], in assay [18] and in assay [19] was greater than 100 µM throughout.

For `Cc1nc(C)c(N2CCN(Cc3ccccc3)CC2)c(=O)[nH]1`, the TGI in assay [1], in [2], in assay [4], in assay [5], in assay [6] and in assay [7] was greater than 100 µM each time. Besides, the TGI in [8], in [9], in assay [10], in assay [11], in [12] and in assay [13] was greater than 100 µM each time. The TGI in [14], in [15], in assay [16], in [17], in [18] and in assay [19] was greater than 100 µM in each case.

Consider `COc1cc(-c2nc(N)c(C#N)c3c2CCS(=O)(=O)c2ccc(C)cc2-3)cc(OC)c1OC`, for which the TGI in assay [1], in [2], in assay [3], in assay [4], in assay [5] and in assay [6] was greater than 100 µM each time. The TGI in assay [7] was 54.8 µM; in assay [8], greater than 100 µM; in [9] it was greater than 100 µM; in [10], greater than 100 µM; in assay [11], 51.1 µM; in [12] it was greater than 100 µM. The results for the TGI in assay [13], in [18] and in assay [19] were 26.9 µM, greater than 100 µM and greater than 100 µM, respectively.
